# Positions count from the first letter of the chain named. Numbers in names are those of the source. Where two headings read alike, the source gives them in different places.
# T1: heparinase II (Pedobacter heparinus, UniProt C6XZB6)
# T1 sequence (C6XZB6 26-772): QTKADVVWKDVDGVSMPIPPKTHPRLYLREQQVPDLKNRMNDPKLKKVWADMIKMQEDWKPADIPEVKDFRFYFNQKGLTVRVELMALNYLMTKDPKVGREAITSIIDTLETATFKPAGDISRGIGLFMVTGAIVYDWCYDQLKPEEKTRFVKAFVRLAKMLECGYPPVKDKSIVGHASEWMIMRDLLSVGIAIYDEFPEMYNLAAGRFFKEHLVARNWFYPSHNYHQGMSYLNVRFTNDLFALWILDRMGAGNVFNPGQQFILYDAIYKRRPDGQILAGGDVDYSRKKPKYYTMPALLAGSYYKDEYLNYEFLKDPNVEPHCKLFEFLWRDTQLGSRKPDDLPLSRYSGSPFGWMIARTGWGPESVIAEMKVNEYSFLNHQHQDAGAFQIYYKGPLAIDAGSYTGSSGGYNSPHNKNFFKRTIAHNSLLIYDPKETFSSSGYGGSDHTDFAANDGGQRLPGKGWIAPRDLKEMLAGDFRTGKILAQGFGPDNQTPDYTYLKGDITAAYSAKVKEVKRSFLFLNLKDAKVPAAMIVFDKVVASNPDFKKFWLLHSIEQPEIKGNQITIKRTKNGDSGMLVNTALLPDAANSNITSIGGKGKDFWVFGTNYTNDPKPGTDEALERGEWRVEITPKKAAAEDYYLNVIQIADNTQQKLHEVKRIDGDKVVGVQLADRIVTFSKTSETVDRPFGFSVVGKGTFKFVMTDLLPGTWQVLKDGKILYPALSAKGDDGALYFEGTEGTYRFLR
# B1: D212A/G213A/T216A: heparinase I CB-1 triple mutant (protein, UniProt Q05819 22-384, looked up, variant D212A G213A T216A)
# Heparin lyase I: QQKKSGNIPYRVNVQADSAKQKAIIDNKWVAVGINKPYALQYDDKLRFNGKPSYRFELKAEDNSLEGYAAGETKGRTELSYSYATTNDFKKFPPSVYQNAQKLKTVYHYGKGICEQGSSRSYTFSVYIPSSFPDNATTIFAQWHGAPSRTLVATPEGEIKTLSIEEFLALYDRMIFKKNIAHDKVEKKDKAAKIAYVAGKPNGWKVEQGGYPTLAFGFSKGYFYIKANSDRQWLTDKADRNNANPENSEVMKPYSSEYKTSTIAYKMPFAQFPKDCWITFDVAIDWTKYGKEANTILKPGKLDVMMTYTKNKKPQKAHIVNQQEILIGRNDDDGYYFKFGIYRVGNSTVPVTYNLSGYSETAR
# B2: E381A: heparinase I CB-2 mutant, glutamate 381 changed to alanine (protein, UniProt Q05819 22-384, looked up, variant E381A)
# Heparin lyase I: B1 Heparin lyase I with A191D, A192G, A195T, E360A
# B3: N375A: heparinase I CB-2 mutant, asparagine 375 changed to alanine (protein, UniProt Q05819 22-384, looked up, variant N375A)
# Heparin lyase I: B1 Heparin lyase I with A191D, A192G, A195T, N354A
# Key:
# [1] = molecular target: T1, heparinase II; assay: DEPC inactivation of heparinase II and reactivation with hydroxylamine; format: biochemical, Flavobacterium heparinum; conditions: for kinact/KI: read-out: second-order rate constant of inactivation (converted); for initial activity recovered by DEPC-modified enzyme: 500 mM hydroxylamine
# [2] = molecular target: T1, heparinase II; assay: pCMB modification and inactivation of heparinase II; format: biochemical, Flavobacterium heparinum
# Source text: (§1) Heparinase II Activity Assay. Native heparinase II from Flavobacterium heparinum, was purified as described previously (Godavarti, R., and Sasisekharan, R (1996c) Biochem. Biophys. Res. Comm. 229, 770-777). The UV 232 nm assay to quantify native heparinase II enzymatic activity was similar to that reported for heparinase I (Bernstein, H., Yang, V. C., Cooney, C. L., Langer, R. (1988) Meth. Enzym. 137, 515-29). Briefly, the course of the reaction is monitored by measuring the increase in absorbance at 232 nm as a function of time under saturating substrate concentrations. With heparin as the substrate, the reaction was carried out at a concentration of 4 mg/ml in 50 mM sodium phosphate buffer, pH 7.3. With 2 mg/ml heparan sulfate, the reaction was measured in 50 mM sodium phosphate buffer, pH 6.9 (Sasisekharan, R., Moses, M. A., Nugent, M. A., Cooney, C. L., Langer, R. (1994) Proc. Natl. Acad. Sci., USA 91, 1524-1528). The temperature for all enzymatic activity measurements was kept constant at 35° C.
# pCMB Modification Studies. […]. A control reaction mixture containing vehicle alone was run in tandem. At fixed time intervals, aliquots were withdrawn for the UV 232 nm enzyme activity assay.
# (B) Reactivation of pCMB—modified heparinase II with DTT. Heparinase II (50 μg/ml) was incubated with 5 μM pCMB for 4 minutes and an aliquot was withdrawn to determine the fractional activity retained. DTT (10 mM) was then immediately added to the reaction mixture and to the control, which contained no pCMB. The mixtures were incubated at 4° C. Heparinase II activity was measured every half hour.
# (C) Effect of salt on the inactivation of heparinase II by pCMB. Heparinase II was incubated with 5 μM pCMB in 50 mM sodium phosphate buffer, pH 7.0, with different salt concentrations (30, 60, 110, 180, 300, and 500 mM NaCl). A control mixture, which contained no additional salt, was also incubated with pCMB.
# (D) Substrate protection of heparinase II against pCMB modification. Heparinase II (50 μg/ml) was preincubated with either 4 mg/ml heparin or 2 mg/ml heparan sulfate for 30 minutes prior to the addition of 5 μM pCMB and then the time course of inactivation was determined with the heparinase II activity assay.
# (E) Quantification of pCMB—modified residues of heparinase II. Quantification of pCMB-modified residues of heparinase II was determined by difference spectra. […] The change in absorbance at 250 nm was monitored every 30 seconds for 10 minutes. The number of modified residues was determined using ∈=7,600 M^−1 cm^−1 (Boyer, P. D. (1952) J. Am. Chem. Soc. 76, 4331-4337). Heparinase II activity assays were completed under identical conditions with heparin as the substrate.
# […]. Less than 2% of total heparinase II enzymatic activity remained after this time interval. […]. Modified heparinase II was separated and concentrated. pCMB was removed via addition of DTT. [^3H]NEM was added to the reaction mixture; unreacted tritium was separated by RPHPLC and heparinase II was digested with Lys-C.
# [3] = Fluorescence competition for calcium with probe rhod-5N; conditions: apparent dissociation constant of rhod-5N for calcium with 3 μM enzyme; lower Kd′ means less binding of calcium by heparinase I
# Description: Fluorescence Competition. To determine the effect of mutations in CB-1 and CB-2 on the ability of heparinase I to bind calcium, mutants with a dramatic drop in activity were tested for their ability to bind calcium. To accomplish this, we examined the ability of heparinase I and mutants to compete for free calcium with the calcium-chelating fluorescence probe rhod-5N. The fluorescence probe rhod-5N was dissolved and diluted in buffer A (10 mM MOPS and 100 mM KCl, pH 6.5). Buffer A and the water used in the study were run through a Chelex Resin column to remove trace amounts of calcium. In the absence of calcium, rhod-5N is not fluorescent, however upon binding calcium rhod-5N is fluorescent with an emission λmax of 576 nm. Before titration, rhod-5N and heparinase I were added to a quartz cuvette such that the final concentration of rhod-5N in the cuvette was 0.3 μM and heparinase I is 3 μM. To this solution was added aliquots of a calcium solution (20 mM) which had been previously equilibrated with 0.3 μM rhod-5N and 3 μM heparinase I. The stock was added such that the calcium concentration in the cuvette was 50, 100, 200, 500, 1000, 5000 μM. After allowing the solution to come to equilibrium, the sample was scanned from 560 nm to 600 nm with the excitation wavelength fixed at […]. The plot of I/Imax versus [Ca^++] was fitted to a non-linear equation to determine the apparent Kd (Kd′) value. Thus, Kd′ values represent the apparent dissociation constants for the fluorescence probe rhod-5N. Control samples without heparinase I were included in the study.
# [4] = Heparinase I UV 232 nm activity assay as a function of heparin concentration (Kcat, Km); format: biochemical, porcine; conditions: for Kcat / Km: heparin 0 to 4 mg/ml, 5 mM calcium acetate, pH 7.0; for Kcat: 100 mM MOPS
# Source text: as §1
# Heparinase I Activity Assay. The UV 232 nm assay to quantify heparinase I enzymatic activity was similar to that described in Example 1. With heparin as the substrate, the reaction was carried out at a concentration of 4 mg/ml in 100 mM MOPS, 5 mM calcium acetate, pH 7.0. The temperature for all enzymatic activity measurements was kept constant at 30° C. For the inactivation kinetic profiles, activity was measured as outlined above at precise time points.
# (§2) Heparinase I Activity Assays: The UV 232 nm assay was used as described in Example 1. When measuring the enzyme activity as a function of heparin concentration, heparin concentrations varied from 0 to 4 mg/ml at a fixed calcium concentration of 5 mM (100 mM MOPS buffer/5 mM calcium acetate, pH 7.0). The data was then fit to an non-linear equation to determine Kcat and Km of heparinases I. Heparinase mutant activity was also investigated as a function of calcium concentration ranging from 0 to 10 mM. […] Activity is expressed as IU-μmol product formed/min using ∈=−3800-M^−1CM^−1.
# [5] = Heparinase I activity as a function of calcium concentration (K0.5, calcium dependence); format: biochemical
# Description: as §2
# [6] = Heparin-POROS affinity chromatography; format: binding; conditions: for NaCl: salt concentration at which enzyme elutes from heparin-POROS column, 10 mM Tris, 1 mM EDTA pH 7.0
# Description: Heparin-POROS chromatography: About 30-40 μg of -L r-heparinase I and the various mutant enzymes were injected into a heparin POROS (4.6 mm×100) column (PerSeptive BioSystems, Framingham, Mass.) connected to BioCAD system (PerSeptive BioSystems). Proteins were eluted using a linear gradient of […] NaCl in 10 min (10 mM Tris, 1 mM EDTA pH 7.0) and monitored at 210 nm. EDTA was added to chelate any calcium ions that may be present in the buffers.
# [7] = calcium concentration at which half of the maximum enzyme activity was observed, calcium 0 to 10 mM, Table 4 first K0.5 column
molecule,measurement,setting,value
"CCOC(=O)OC(=O)OCC [DEPC, diethylpyrocarbonate]",loss of heparinase II enzymatic activity,"[1]; 2 mM DEPC, 10 minutes, towards heparin and heparan sulfate",90%
same,number of histidines modified,"[1]; 2 mM DEPC, ten minutes, pH 7.0",roughly three
same,kinact/KI,[1]; heparan sulfate as the substrate,4 M⁻¹ s⁻¹
same,kinact/KI,[1]; heparin as the substrate,2.67 M⁻¹ s⁻¹
NO [Hydroxylamine],initial activity recovered by DEPC-modified enzyme,"[1]; 8 hours, pH 7.0",about 90%
same,initial activity recovered by DEPC-modified enzyme,"[1]; approximately 1.5 hours, pH 7.0, after inactivation to 50%",about 80%
same,activity restored after DEPC modification,[1]; pH 8,over 70%
"O=C(O)c1cc[c]([Hg][Cl])cc1 [pCMB, p(chloromercuri)benzoate]",time to complete inactivation of heparinase II,[2]; 10 μM,≤ 15 min
same,loss of activity,[2]; 20 μM pCMB,98%
same,number of cysteines modified,[2]; 20 μM pCMB,1.06 cysteines
same,first-order rate constant of inactivation,[2]; 500 mM salt,0.06 min⁻¹
same,drop of first order rate constant of inactivation,"[2]; between 0 and 100 mM NaCl, 5 μM pCMB",2 fold
same,decrease of first order rate constant of inactivation,"[2]; between 0 and 300 mM NaCl, 5 μM pCMB",more than 4 fold
same,"k, first-order rate constant of inactivation",[2]; pH 5.0,0.16 min⁻¹
same,"k, first-order rate constant of inactivation",[2]; pH 6.0,0.14 min⁻¹
same,"k, first-order rate constant of inactivation",[2]; pH 7.0,0.21 min⁻¹
same,second-order rate constant for the inactivation,"[2]; pH 7.0, 4° C.",667 M⁻¹ s⁻¹
same,"k, first-order rate constant of inactivation",[2]; pH 8.0,0.24 min⁻¹
same,total heparinase II enzymatic activity remaining,"[2]; stoichiometric amount of pCMB, 15 minutes",Less than 2%
same,pCMB inactivation (Table 1 value),"[2]; substrate heparan sulfate, protection reagent heparan sulfate",0.09
same,pCMB inactivation (Table 1 value),"[2]; substrate heparan sulfate, protection reagent heparin",0.16
same,pCMB inactivation (Table 1 value),"[2]; substrate heparan sulfate, protection reagent none",0.21
same,pCMB inactivation (Table 1 value),"[2]; substrate heparin, protection reagent heparan sulfate",0.10
same,pCMB inactivation (Table 1 value),"[2]; substrate heparin, protection reagent heparin",0.16
same,pCMB inactivation (Table 1 value),"[2]; substrate heparin, protection reagent none, 5 μM pCMB",0.22
B1,Kd,[3],116 µM
same,decrease in Kcat compared to wild-type r-heparinase I,[4],~5 fold
same,Kcat,[4],20 s⁻¹
same,Km,[4],3.16 µM
same,K0.5,[5]; Table 4 second K0.5 column,730 µM
same,K0.5,[5]; [7],730 µM
same,NaCl,[6],495 mM
B2,Kd,[3],175 µM
same,decrease in Kcat compared to wild-type r-heparinase I,[4],about 10 fold
same,Kcat,[4],10 s⁻¹
same,Km,[4],0.52 µM
same,K0.5,[5]; Table 4 second K0.5 column,180 µM
same,K0.5,[5]; [7],180 µM
same,NaCl,[6],505 mM
B3,Kd,[3],216 µM
same,decrease in Kcat compared to wild-type r-heparinase I,[4],about 10 fold
same,Kcat,[4],10 s⁻¹
same,Km,[4],0.88 µM
same,decrease in Kcat compared to wild-type r-heparinase I,[4]; listed as N375,more than 9 fold
same,K0.5,[5]; Table 4 second K0.5 column,60 µM
same,K0.5,[5]; [7],60 µM
same,"elution salt concentration / heparin binding relative to wild-type r-heparinase I, in words",[6],comparable to wild-type r-heparinase I
same,NaCl,[6],490 mM

# — patent US7560106B2, “Rationally designed heparinases derived from heparinase I and II and methods of sequencing therewith” (Massachusetts Institute of Technology, priority 1998, dated 2009)
